According to patent publication US20250388575A1, “HETEROBIFUNCTIONAL COMPOUNDS AND METHODS OF TREATING DISEASE” (Halda Therapeutics OpCo, Inc., priority 2022, published 2025):
Like-named read-outs stand apart in the source and are kept apart here.

What was measured:
[1] = test system: T-Rex 293 cell line SC3 cells lacking increased expression of androgen receptor protein; experiment: Cellular growth inhibition, T-Rex 293 SC3 cells lacking increased androgen receptor expression (no doxycycline), CellTiter-Glo; assay type: cell-based; conditions: T-Rex 293 SC3 cells lacking increased androgen receptor expression (not exposed to doxycycline), 72 hours, CellTiter-Glo; read-out: GI50
Procedure, shortened: (§1)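 SC3, a T-Rex 293 clone with doxycycline-inducible wild-type androgen receptor, was seeded in phenol red-free DMEM with 10% charcoal-dextran FBS, with or without 10 ng/mL doxycycline. Compound added at 24 h (0.5% DMSO) for 72 h at 37° C. CellTiter-Glo 2.0 luminescence; GI50 from four-parameter fit.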

BRD4-BD2 = BRD4-BD2 (Homo sapiens (Human), UniProt O60885); experiment: bromoKdELECT assay for binding affinity to BRD4-BD2; conditions: 11-point 3-fold dilution
Description: (§2) Compounds were tested using a bromoKdELECT assay. T7 phage strains displaying bromodomains were grown in parallel in 24-well blocks in an E. coli host derived from the BL21 strain. E. coli were grown to log-phase and infected with T7 phage from a frozen stock (multiplicity of infection=0.4) and incubated with shaking at 32° C. until lysis (90-150 minutes). The lysates were centrifuged (5,000×g) and filtered (0.2 μm) to remove cell debris. Streptavidin-coated magnetic beads were treated with biotinylated small molecule or acetylated peptide ligands for 30 minutes at room temperature to generate affinity resins for bromodomain assays. The liganded beads were blocked with excess biotin and washed with blocking buffer (SeaBlock (Pierce), 1% BSA, 0.05% Tween 20, 1 mM DTT) to remove unbound ligand and to reduce nonspecific phage binding. Binding reactions were assembled by combining bromodomains, liganded affinity beads, and test compounds in 1× binding buffer (17% SeaBlock, 0.33×PBS, 0.04% Tween 20, 0.02% BSA, 0.004% Sodium azide, 7.4 mM DTT). Test compounds were prepared as 1000× stocks in 100% DMSO. Kds were determined using an 11-point 3-fold compound dilution series with one DMSO control point. All compounds for Kd measurements are distributed by acoustic transfer (non-contact dispensing) in 100% DMSO. The compounds were then diluted directly into the assays such that the final concentration of DMSO was 0.09%. All reactions performed in polypropylene 384-well plates. Each was a final volume of 0.02 ml. The assay plates were incubated at room temperature with shaking for 1 hour and the affinity beads were washed with wash buffer (1×PBS, 0.05% Tween 20). The beads were then resuspended in elution buffer (1×PBS, 0.05% Tween 20, 2 μM non-biotinylated affinity ligand) and incubated at room temperature with shaking for 30 minutes. The bromodomain concentration in the eluates was measured by qPCR.

[2] = target: progesterone receptor ligand binding domain (LBD) (Homo sapiens (Human), UniProt P06401); experiment: FP assay for binding affinity to progesterone receptor (PolarScreen Progesterone Receptor Competitor Assay); conditions: GST-tagged PR LBD, Fluormone tracer, fluorescence polarization, 2 hours at room temperature
Description: Compounds were tested using the PolarScreen™ Progesterone Receptor Competitor Assay Kit (Life Technologies Cat #A15905 or a15906), as per the manufacturer's instructions. Briefly, GST-tagged PR LBD, Fluormone tracer, and compound were mixed and incubated for 2 hours at room temperature in the dark. Following incubation, the plates were spun at 3000×g for 30 seconds, then sealed with an optical adhesive cover, and fluorescence polarization was measured using appropriate excitation and emission filters with an EnVision Plate Reader (Perkin Elmer). Compound concentration vs. mP value were plotted in Prism (GraphPad). A four-parameter non-linear regression curve fit was applied to dose-response data to determine the half-maximal inhibitory concentration (IC50) for each test compound.

[3] = test system: T-Rex 293 cell line SC3 cells having increased expression of androgen receptor protein; experiment: Cellular growth inhibition, T-Rex 293 SC3 cells with increased androgen receptor expression (doxycycline), CellTiter-Glo; assay type: cell-based; conditions: T-Rex 293 SC3 cells with increased androgen receptor expression (exposed to 10 ng/mL doxycycline), 72 hours, CellTiter-Glo; read-out: GI50
Procedure, shortened: as §1

BRD4-BD1 = BRD4-BD1 (Homo sapiens (Human), UniProt O60885); experiment: bromoKdELECT assay for binding affinity to BRD4-BD1; conditions: 11-point 3-fold dilution
Description: as §2

VCaP cells = experiment: Cellular growth inhibition assay for VCaP cells, CellTiter-Glo; assay type: cell-based, human; conditions: VCaP cells, 72 hours, CellTiter-Glo, read-out: GI50
Procedure, shortened: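 GI50 values come from four-parameter curve fits of luminescence data normalized to a zero baseline. Compound, in medium with 0.5% DMSO, was added one day after plating and left for 72 h before CellTiter-Glo 2.0 addition.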

T47D cells = experiment: Cellular growth inhibition assay for T47D cells, CellTiter-Glo; assay type: cell-based, human; conditions: 72 hours treatment, CellTiter-Glo 2.0
Procedure, shortened: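 Cells are plated at 3000/well and allowed 24 h before treatment. Test compound in medium containing 0.5% DMSO is then added, with DMSO-only wells as negative control, and plates are incubated 72 h at 37 °C. ATP luminescence (CellTiter-Glo 2.0) is then fitted to four parameters to derive GI50.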

[4] = test system: T-Rex 293 cell line SC cells having increased expression of progesterone receptor isoform B protein; experiment: Cellular growth inhibition, T-Rex 293 SC cells with increased progesterone receptor isoform B expression (doxycycline), CellTiter-Glo; assay type: cell-based; conditions: progesterone receptor isoform B induced with 10 ng/mL doxycycline, 72 hours
Description: (§3) The following types of cells were prepared for this experiment: (i) a T-Rex 293 cell line having increased expression of progesterone receptor isoform B protein due to exposure to doxycycline and (ii) a T-Rex 293 cell line lacking increased expression of progesterone receptor isoform B protein. Ability of the test compounds to inhibit proliferation of the foregoing cell types was evaluated according to the procedures set forth below.
(§4) The doxycycline-inducible progesterone receptor isoform B protein expressing cell line was established using the following protocol: T-Rex 293 cells were purchased from Invitrogen (Cat #R71007) and transfected using Lipofectamine 2000 with the wild-type progesterone receptor B protein sequence cloned into the pcDNA4/TO vector. Transfected cells were selected using 400 μg/mL Zeocin (Invitrogen Cat #R25001). Following selection, single clones were raised and maintained in Dulbecco's Modified Eagle Medium (DMEM) supplemented with 10% w/w Tetracycline-free fetal bovine serum (FBS) and 250 μg/mL Zeocin. Clones were analyzed for expression of progesterone receptor isoform B protein in the presence and absence of 10 ng/ml doxycycline (Sigma Cat #D9891), and a single doxycycline-inducible clone (hereinafter “SC”) was selected for use in downstream assays.
(§5) The SC cells were seeded on poly-D-lysine coated, black clear-bottom 384-well plates at 2500/well, in 25 μL Phenol Red Free Dulbecco's Modified Eagle Medium (DMEM) supplemented with 10% w/w charcoal-dextran treated fetal bovine serum (FBS) and 1% w/w pen-strep, with or without 10 ng/mL doxycycline. Pen-Strep is a commercially available mixture of penicillin G and streptomycin, which is used in mammalian cell culture media to prevent bacterial contamination. Phenol Red Free Dulbecco's Modified Eagle Medium (DMEM) supplemented with 10% w/w charcoal-dextran treated fetal bovine serum (FBS) and 1% w/w pen-strep, with or without 10 ng/mL doxycycline is herein referred to as Treatment Medium. Following seeding of cells in the plates, the plates were spun at 300×g for 30 seconds, then equilibrated to room temperature for 30 minutes, and then deposited in a humidified tissue culture incubator maintained at 37° C. with 5% CO2.
(§6) At 24 hours after seeding of the cells, dilutions of test compound were prepared in DMSO and dissolved in Treatment Medium, to achieve a final DMSO concentration of 0.5% w/w, thereby providing the Test Compound Solution. A 25 μL aliquot of the Test Compound Solution was added to cells in the well plates. An equal volume of a solution containing DMSO and Treatment Medium was used as a negative control. Following treatment of cells with Test Compound Solution or said equal volume of a solution containing DMSO and Treatment Medium, the plates were spun at 300×g for 30 seconds, and then left in an incubator for 72 hours.
(§7) At the end of the treatment duration, cell viability was quantified with CellTiter-Glo 2.0 reagent (Promega Cat #G9243). For this purpose, plates were equilibrated to room temperature for 30 minutes, and then 25 μL of CellTiter-Glo 2.0 reagent was added to cells in the plate wells. Plates were then agitated on a shaker for two minutes at 500 rpm and subsequently incubated at room temperature for 10 minutes. Following incubation, the plates were spun at 3000×g for 30 seconds, then sealed with an optical adhesive cover, and luminescence readings were measured with an EnVision Plate Reader (Perkin Elmer).
(§8) Data was normalized using zero luminescence for baseline. A four-parameter non-linear regression curve fit was applied to dose-response data in GraphPad Prism data analysis software to determine the half-maximal growth inhibitory concentration (GI50) for each test compound.

[5] = test system: T-Rex 293 cell line SC cells lacking increased expression of progesterone receptor isoform B protein; experiment: Cellular growth inhibition, T-Rex 293 SC cells lacking increased progesterone receptor isoform B expression (no doxycycline), CellTiter-Glo; assay type: cell-based; conditions: T-Rex 293 SC cells not exposed to doxycycline, 72 hours
Description: as §3, §4, §5, §6, §7, §8

Chain of progesterone receptor ligand binding domain (LBD) (P06401 679-913): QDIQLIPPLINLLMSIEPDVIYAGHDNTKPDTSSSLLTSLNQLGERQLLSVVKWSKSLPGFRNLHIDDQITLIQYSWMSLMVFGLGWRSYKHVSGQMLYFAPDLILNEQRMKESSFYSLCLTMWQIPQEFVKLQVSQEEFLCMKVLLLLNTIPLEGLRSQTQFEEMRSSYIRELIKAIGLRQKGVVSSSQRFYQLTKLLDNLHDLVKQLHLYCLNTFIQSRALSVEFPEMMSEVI

| SMILES | IC50 [2] [nM] | GI50 (VCaP cells; Homo sapiens) [nM] | GI50 (T47D cells) [nM] | GI50 (VCaP cells) [nM] | GI50 (T47D cells; Homo sapiens) [nM] | GI50 [1] [nM] | Kd (BRD4-BD2) [nM] | GI50 [3] [nM] | Kd (BRD4-BD1) [nM] | GI50 [4] [nM] | GI50 [5] [nM] |
| --- | --- | --- | --- | --- | --- | --- | --- | --- | --- | --- | --- |
| Cn1cc(-c2cc(S(=O)(=O)CCCCOC3CCN(c4ccc(C(=O)NC5CCC(Oc6ccc(C#N)c(Cl)c6)CC5)nn4)CC3)ccc2Oc2ccc(F)cc2F)c2cc[nH]c2c1=O (stereo not shown) [I-92, N-[4-(3-chloro-4-cyano-phenoxy)cyclohexyl]-6-[4-[4-[4-(2,4-difluorophenoxy)-3-(6-methyl-7-oxo-1H-pyrrolo[2,3-c]pyridin-4-yl)phenyl]sulfonylbutoxy]-1-piperidyl]pyridazine-3-carboxamide] | 50 to 500 | > 3000 |  |  |  | > 3000 | > 2500 | < 500 | > 2500 |  |  |
| Cn1cc(-c2cc(S(=O)(=O)CCCCCN3CCN(c4ccc(C(=O)N[C@H]5CC[C@H](Oc6ccc(C#N)c(Cl)c6)CC5)nn4)CC3)ccc2Oc2ccc(F)cc2F)c2cc[nH]c2c1=O [I-94] | 50 to 500 |  | 500 to 1500 | < 500 |  | > 3000 |  | < 500 |  |  |  |
| Cn1cc(-c2cc(C(C)(C)O)ccc2Oc2cc(F)c(CCOC3CCN(c4ccc(C(=O)N[C@H]5CC[C@H](Oc6ccc(C#N)c(Cl)c6)CC5)nn4)CC3)cc2F)c2cc[nH]c2c1=O [I-107] | 50 to 500 | < 500 |  |  | < 500 | < 500 |  | < 500 |  |  |  |
| Cn1cc(-c2cc(C(C)(C)O)ccc2Oc2ccc(OCC3CCN(c4ccc(C(=O)NC5CCC(Oc6ccc(C#N)c(Cl)c6)CC5)nn4)CC3)cc2)ccc1=O (stereo not shown) [I-235, N-[4-(3-chloro-4-cyano-phenoxy)cyclohexyl]-6-[4-[[4-[4-(1-hydroxy-1-methyl-ethyl)-2-(1-methyl-6-oxo-3-pyridyl)phenoxy]phenoxy]methyl]-1-piperidyl]pyridazine-3-carboxamide] | 50 to 500 | < 500 |  |  | 500 to 1500 | > 3000 |  | < 500 |  |  |  |

Now from value to molecule, other results behind:

| IC50 [2] [nM] | GI50 (VCaP cells; Homo sapiens) [nM] | GI50 (T47D cells) [nM] | GI50 (VCaP cells) [nM] | GI50 (T47D cells; Homo sapiens) [nM] | SMILES | GI50 [1] [nM] | Kd (BRD4-BD2) [nM] | GI50 [3] [nM] | Kd (BRD4-BD1) [nM] | GI50 [4] [nM] | GI50 [5] [nM] |
| --- | --- | --- | --- | --- | --- | --- | --- | --- | --- | --- | --- |
|  | < 500 |  |  | < 500 | Cn1cc(-c2cc(C(C)(C)O)ccc2Oc2ccc(CC3CCN(c4ccc(C(=O)N[C@H]5CC[C@H](Oc6ccc(C#N)c(Cl)c6)CC5)nn4)CC3)cc2)c2cc[nH]c2c1=O [I-101] | 500 to 1500 |  | < 500 |  | < 500 | < 500 |
|  | < 500 |  |  | < 500 | Cn1cc(-c2cc(C(C)(C)O)ccc2Oc2ccc(CCOC3CCN(c4ccc(C(=O)N[C@H]5CC[C@H](Oc6ccc(C#N)c(Cl)c6)CC5)nn4)CC3)cc2)c2cc[nH]c2c1=O [I-103] | < 500 |  | < 500 |  | < 500 | < 500 |
| 50 to 500 | 500 to 1500 |  |  | < 500 | Cn1cc(-c2cc(C(C)(C)O)ccc2Oc2ccc(CCOC3CCN(c4ccc(C(=O)N[C@H]5CC[C@H](Oc6ccc(C#N)c(Cl)c6)CC5)nn4)CC3)cc2F)c2cc[nH]c2c1=O [I-106] | < 500 |  | < 500 |  |  |  |
|  | < 500 |  |  | < 500 | CN(c1ccc(Oc2ccc(C(C)(C)O)cc2-c2cn(C)c(=O)c3[nH]ccc23)cc1)C1CN(c2ccc(C(=O)N[C@H]3CC[C@H](Oc4ccc(C#N)c(Cl)c4)CC3)nn2)C1 [I-138] | < 500 |  | < 500 |  | < 500 | < 500 |
|  |  | < 500 | < 500 |  | Cn1cc(-c2cc(C(C)(C)O)ccc2Oc2ccc(N3CCN(c4ccc(C(=O)N[C@H]5CC[C@H](Oc6ccc(C#N)c(Cl)c6)CC5)nn4)CC3)cc2)c2cc[nH]c2c1=O [I-139] | < 500 |  | < 500 |  | < 500 | < 500 |
| 50 to 500 |  | 500 to 1500 | > 3000 |  | CC(C)N(C1CCN(c2ccc(C(=O)N[C@H]3CC[C@H](Oc4ccc(C#N)c(Cl)c4)CC3)nn2)CC1)C1CN(c2cccc(Oc3ccc(C(C)(C)O)cc3-c3cn(C)c(=O)c4[nH]ccc34)c2F)C1 [I-141] | 500 to 1500 |  | < 500 |  |  |  |
|  |  | < 500 | < 500 |  | Cn1cc(-c2cc(C(C)(C)O)ccc2Oc2ccc(N3CC(C4CCN(c5ccc(C(=O)N[C@H]6CC[C@H](Oc7ccc(C#N)c(Cl)c7)CC6)nn5)CC4)C3)cc2)c2cc[nH]c2c1=O [I-148] | > 3000 |  | < 500 |  | < 500 | 500 to 1500 |
